Results as given in patent publication US9040713B2, “Methods of managing blood sugar levels and compositions related thereto” (EMORY UNIVERSITY, priority 2010, dated 2015).

Legend:
GFP-IRTK R2 = assay: In vitro kinase assay of IRTK/IGF-1R kinase hybrids; format: biochemical, human; conditions: R2 region of IRTK replaced with IGF-1R
Method: Parental CHO cells were used as a negative control (Bottom panel). The fluorescence-labeled cells were analyzed on flow cytometry. (B) 4524-E7 protects IRTK from proteolysis. GST-IRTK was subjected to limited trypsin or chymotrypsin digestion in the presence of 4524-E7 (50 μM), ATPyS (5 μM) or both at 37° C. for 5 min. The reaction mixture was resolved by SDS-PAGE, followed by silver staining Cleaved fragments were asterisked. (C) 4524-E7 increases IRTK activity in vitro. Recombinant GST-IRTK, GST-IGFRTK, and GST-EGFRTK were incubated with different concentrations of 4524-E7 or 10 μM 2—NH2-NQ and the kinase activity was examined by monitoring the phosphorylation of histone H2B. (E) In vitro kinase activity of various IRTK/IGF-1R kinase hybrids. The GFP-tagged kinases were expressed in HEK293, immunoprecipitated and incubated with different concentrations of 4524-E7 as indicated. […] Expressions of the kinases were also verified (lower panel).
To test if these regions are the action sites of 4524-E7, several GFP-tagged hybrid kinases were generated with R1 (GFP-IRTK R1), R2 (GFP-IRTK R2) or both (GFP-IRTK R1+R2) regions of IRTK and replaced with the corresponding sequence of IGF-1R. These mutants were then used to perform the in vitro kinase assay in the presence of 4524-E7. […]

IGFR-IR hybrid = assay: His-tagged chimaeric receptor phosphorylation in CHO cells; format: cell-based, human; conditions: 5 μM, 30 min
Method: (§1) (A) Chemical structure of 4524-E7. (B) Effect of 4524-E7 and other 1,4-naphthoquinone derivatives on IR phosphorylation in CHO-IR cells. CHO-IR cells were cultured in 96-well plates and treated with 5 μM compounds for 15 min at 37 C. Cells were lysed, and IR phosphorylations were tested by ELISA. The IR phosphorylation activities of the tested compounds were expressed as a percentage of the vehicle. (C) 4524-E7 and 1,4-naphthoquinone derivates activate IR and its downstream signaling in CHO-IR cells. […] The cell lysates were analyzed by immunoblotting with various indicated antibodies. The phosphorylated IR was immunoprecipitated using PY20 and analyzed by immunoblotting with anti-IR13 antibody. […] The phosphorylation of each receptor was determined by Western blot using specific antibodies as indicated. (E) 4524-E7 activates IR through its ICD. Upper panel: Diagram of chimaeric receptors. Lower panel: His-tagged wild-type IR, IGFR-IR, IR-IGFR, and IR-EGFR constructs were transfected into CHO cells followed vehicle or 5 μM 4524-E7 treatment for 30 min. Then the cells were lysated and the transfected receptor fused to His tag were pulled down with Ni+ beads, followed by western blot against anti-p-Tyr and anti-His. The cell lysates were tested with anti-p-Akt and anti-Akt.
(§2) The cDNA encoding wild type IR was introduced into the pcDNA3.1/V5-His-TOPO vector. […]

IR-IGFR = assay: as above; format: cell-based, human; conditions: 5 μM, 30 min
Method: as §1, §2

IGF-IR = target: T1, IGF-IR (Mus musculus, UniProt Q60751); assay: IGF-IR activation in mouse muscle and liver; format: in vivo; conditions: C57BL/6J mice, 20 mg/kg oral
T1 construct: from tissue; host or cells: muscle and liver of C57BL/6J mice
T1 sequence (Q60751 31-1373): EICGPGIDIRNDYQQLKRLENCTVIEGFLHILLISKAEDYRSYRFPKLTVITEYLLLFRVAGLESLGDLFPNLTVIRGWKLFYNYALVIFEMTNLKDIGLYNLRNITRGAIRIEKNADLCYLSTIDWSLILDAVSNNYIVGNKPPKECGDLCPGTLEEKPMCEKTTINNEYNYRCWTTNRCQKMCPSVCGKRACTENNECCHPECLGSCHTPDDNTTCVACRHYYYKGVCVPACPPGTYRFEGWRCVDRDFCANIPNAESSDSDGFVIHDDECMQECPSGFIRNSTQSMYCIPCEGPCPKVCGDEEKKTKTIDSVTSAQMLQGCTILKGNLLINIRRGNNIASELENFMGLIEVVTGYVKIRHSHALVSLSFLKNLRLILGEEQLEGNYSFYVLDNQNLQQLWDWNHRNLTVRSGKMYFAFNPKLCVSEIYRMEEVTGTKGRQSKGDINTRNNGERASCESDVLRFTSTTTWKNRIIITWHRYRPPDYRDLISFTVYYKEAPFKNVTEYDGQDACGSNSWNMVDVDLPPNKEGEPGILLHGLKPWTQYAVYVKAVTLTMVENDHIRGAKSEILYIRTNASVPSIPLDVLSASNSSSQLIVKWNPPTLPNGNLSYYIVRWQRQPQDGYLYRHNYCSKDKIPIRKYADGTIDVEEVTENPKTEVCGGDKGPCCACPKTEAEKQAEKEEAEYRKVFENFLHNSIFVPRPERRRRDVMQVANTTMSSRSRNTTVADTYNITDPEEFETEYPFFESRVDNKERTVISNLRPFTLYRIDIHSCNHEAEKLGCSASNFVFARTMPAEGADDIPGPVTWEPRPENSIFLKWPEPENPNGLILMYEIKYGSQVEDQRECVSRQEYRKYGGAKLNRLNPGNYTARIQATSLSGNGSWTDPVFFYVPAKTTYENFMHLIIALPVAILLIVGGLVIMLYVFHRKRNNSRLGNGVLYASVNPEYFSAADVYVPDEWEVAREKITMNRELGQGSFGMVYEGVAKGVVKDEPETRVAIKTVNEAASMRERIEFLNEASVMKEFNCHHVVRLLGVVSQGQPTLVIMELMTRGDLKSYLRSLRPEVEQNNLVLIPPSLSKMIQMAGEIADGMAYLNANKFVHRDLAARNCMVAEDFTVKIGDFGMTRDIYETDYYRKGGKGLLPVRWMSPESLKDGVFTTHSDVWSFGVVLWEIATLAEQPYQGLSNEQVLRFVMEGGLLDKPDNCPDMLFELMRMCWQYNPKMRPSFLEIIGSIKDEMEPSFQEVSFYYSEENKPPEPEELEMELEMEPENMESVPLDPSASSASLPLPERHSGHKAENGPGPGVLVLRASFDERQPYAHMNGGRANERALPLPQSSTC

SMILES | kinase stimulatory effect on hybrid kinase (GFP-IRTK R2) | tyrosine phosphorylation of chimaeric receptor (IGFR-IR hybrid) | tyrosine phosphorylation of chimaeric receptor (IR-IGFR) | IGF-IR activation in muscle or liver (IGF-IR)
O=C1c2ccccc2C(=O)C2SC(Nc3ccc(Cl)cc3)=NC12 (stereo not shown) [4524-E7, 2-((4-chlorophenyl)amino)naphtho[2,3-d]thiazole-4,9(3aH,9aH)-dione] | abolishes the kinase stimulatory effect | selective tyrosine phosphorylation | not phosphorylated | 
CC(=O)Oc1ccc(OC(C)=O)c2c1C(=O)C(Cl)=C(Cl)C2=O [DDN, 5,8-diacetyloxy-2,3-dichloro-1,4-naphthoquinone] |  |  |  | did not stimulate IGF-IR activation
